Data: patent US20230158040A1, “METHYLTHIONINIUM COMPOUNDS FOR USE IN THE TREATMENT OF HYPOXEMIA” (WisTa Laboratories Ltd., priority 2020, published 2023)

Experiments:
metHb = metHb levels in clinical trial subjects receiving LMTM; assay type: in vivo, human
Text: In order to understand this effect further the inventors investigated whether the low oxygen saturation in these patients is due to elevation in metHb levels. There was no difference in metHb levels at baseline between subjects with low SpO2 and those with SpO2 levels in the normal range.
Therefore, LMTM is able to act on haemoglobin over a range of doses in such a way as to enhance oxygen saturation in the blood by a novel mechanism unrelated to its known effects on metHb.

[1] = Oxygen saturation (SpO2) in clinical trial subjects with low oxygen saturation, pre-dose vs 4 hrs after a single dose; assay type: in vivo, human
Text: The present inventors have used data available for patients participating in clinical trials to determine whether LMT enhances oxygen saturation of blood. Data were available for 18 subjects with oxygen saturation <94% at baseline (lower limit of normal range is
These patients recorded a variety of respiratory or other conditions of various degrees of severity which it was suspected may have contributed to the detected hypoxemia, including sleep apnoea, insomnia (which may be indicative of Paroxysmal nocturnal dyspnea or paroxysmal nocturnal dyspnoea), asbestosis, oedema, asthma, bronchitis, allergies, angioedema, pneumonia, acute myocardial infarction/ hypertension, Coronary artery disease with angioplasty and stent insertion, transient ischaemic attacks (TIA), hypothyroidism, diabetes, syncope, tachycardia and sepsis. […]

[2] = LMT at high concentrations, oral doses in the range 150-250 mg/day

metHb levels (metHb; [2]) | metHb levels (metHb; LMTM at higher doses / high dosages over a period of time, FIG. 3) | Structure (SMILES) | SpO2 levels [1, 2] | oxygen saturation at 4 hours ([1]; single dose of LMT at 4 mg and ~100 mg (mean of 75, 100, 125 mg), 18 subjects with oxygen saturation <94% at baseline, pre-dose vs 4 hrs post-dose)
measurable increase | – | CN(C)c1ccc2c(c1)Sc1cc(N(C)C)ccc1N2 [LMT] | increase SpO2 levels | –
– | systematically increases | CN(C)c1ccc2c(c1)Sc1cc(N(C)C)ccc1N2 [LMTM, leuco-methylthioninium bis(hydromethanesulfonate)] | – | significantly increased
